Test results taken from patent publication US12053506B2, “Romo1-derived antimicrobial peptides and variants thereof” (priority 2019, dated 2024).
No end group written: not given here.

Legend:
[1] = system: Pseudomonas aeruginosa (ATCC 27853); format: cell-based; conditions: for MBC Pseudomonas aeruginosa: Tables 11-15, no unit printed; for MBC value (μg/ml) against Pseudomonas aeruginosa: ATCC 27853, 1 h
Source text: (§1) Romo1 protein comprises two α-helices. The present inventors synthesized the α-helix 2 region having both hydrophilicity and hydrophobicity, and evaluated the antibacterial activity thereof using minimum bactericidal concentration (MBC) assay. The α-helix 2 region was named KU-5279 (the 52-79 amino acid region of Romo1 protein). Then, in order to identify peptides that are beneficial for human application and have excellent antibacterial activity, the present inventors synthesized several peptides comprising a sequence of contiguous amino acids starting at any amino acid selected from the 52-79 amino acid region of Romo1 protein, and comparatively evaluated the antibacterial activities of the peptides by minimum bactericidal concentration assay (See Table 1 below for information on each peptide). Evaluation of the antibacterial activity of each peptide by minimum bactericidal concentration assay was specifically performed as follows. First, each of Pseudomonas aeruginosa (ATCC 27853) and Staphylococcus aureus (ATCC 29213) was cultured in 3% (w/v) TSB (Tryptic Soy Broth) liquid medium at 37° C. and 200 rpm for 4 hours, and then further cultured under the same conditions for 3 hours to a concentration of 5×10^6 CFU/ml. Strain solutions were prepared by diluting each of the further cultured strains with SP (sodium phosphate; 10 mM sodium phosphate, 1% TSB) buffer to a final concentration of 2×10^5 CFU/ml. Then, each peptide at varying concentrations (0 μg/ml to 300 μg/ml) was dispensed into each well of a 96-well microplate, and 100 μl (1×10^5 CFU/ml) of each of the prepared strain solutions was added thereto, mixed therewith, and allowed to react with the peptide in an incubator at 37° C. for 1 hour. In addition, 30 g/L of TS (tryptic soy) and 15 g/L of agar were dissolved in distilled water and sterilized, and then 25 ml of the solution was poured onto a 100 mm round plate and solidified at room temperature for one day or more, thereby preparing a TS agar plate. 10 μl of each reaction solution of the peptide and the strain was plated on the TS agar plate at a constant size, and incubated in an incubator at 37° C. for 18 hours, and then colony formation on the plate was checked. The minimum bactericidal concentration was defined as the minimum concentration of the peptide at which no colony was formed, and the experimental results are shown in Table 1 below.

[2] = system: Staphylococcus aureus (ATCC 29213); format: cell-based; conditions: for MBC Staphylococcus aureus: Tables 11-15, no unit printed; for MBC value (μg/ml) against Staphylococcus aureus: ATCC 29213, 1 h
Source text: as §1

[3] = system: methicillin-resistant Staphylococcus aureus (ATCC 33591); conditions: Tables 11-15, no unit printed
Method: First, each of Pseudomonas aeruginosa (ATCC 27853) and Staphylococcus aureus (ATCC 29213) was cultured in 3% (w/v) TSB (Tryptic Soy Broth) liquid medium at 37° C. and 200 rpm for 4 hours, and then further cultured under the same conditions for 3 hours to a concentration of 5×10^6 CFU/ml. Strain solutions were prepared by diluting each of the further cultured strains with SP (sodium phosphate; 10 mM sodium phosphate, 1% TSB) buffer to a final concentration of 2×10^5 CFU/ml.
Then, each peptide at varying concentrations (0 μg/ml to 300 μg/ml) was dispensed into each well of a 96-well microplate, and 100 μl (1×10^5 CFU/ml) of each of the prepared strain solutions was added thereto, mixed therewith, and allowed to react with the peptide in an incubator at 37° C. for 1 hour.
In addition, 30 g/L of TS (tryptic soy) and 15 g/L of agar were dissolved in distilled water and sterilized, and then 25 ml of the solution was poured onto a 100 mm round plate and solidified at room temperature for one day or more, thereby preparing a TS agar plate. 10 μl of each reaction solution of the peptide and the strain was plated on the TS agar plate at a constant size, and incubated in an incubator at 37° C. for 18 hours, and then colony formation on the plate was checked.
Specifically, each type of bacteria was cultured in 3% (w/v) TSB (Tryptic Soy Broth) liquid medium at 37° C. and 200 rpm for 4 hours, and then further cultured under the same conditions for 3 hours to a concentration of 5×10^6 CFU/ml. Strain solutions were prepared by diluting each of the […] of 2×10^5 CFU/ml.
Then, the KU-5878 peptide at varying concentrations (0 μg/ml to 300 μg/ml) was dispensed into each well of a 96-well microplate, and 100 μl (1×10^5 CFU/ml) of each of the prepared strain solutions was added thereto, mixed therewith, and allowed to react with the peptide in an incubator at 37° C. for 1 hour.
In addition, 10 μl of each reaction solution of the peptide and the strain was plated on the TS agar plate at a constant size, and incubated in an incubator at 37° C. for 18 hours, and then colony formation on the plate was checked.

CRPA = test: MBC, evaluation of antibacterial activities of KU-5878 variants; format: cell-based; conditions: Tables 11-15, no unit printed
Method: Variants were prepared by deleting one amino acid from the amino acid sequence of KU-5878 (SEQ ID NO: 13), and the antibacterial activities thereof were evaluated.
Variants were prepared by deleting two or more amino acids from the amino acid sequence of KU-5878 (SEQ ID NO: 13), and the antibacterial activities thereof were evaluated.
One amino acid in the amino acid sequence of KU-5878 (SEQ ID NO: 13) was substituted, and the antibacterial activities of the peptides were evaluated.
Substitutions of Q62K, S63K and T66K were sequentially added to the amino acid sequence of KU-5878-T59K, and the antibacterial activities of the peptides were evaluated.
An amino acid repeat sequence was added to the C-terminus of KU-5878, and the antibacterial activities of the peptides were evaluated. According to Table 15 below, when the R (arginine) repeat sequence or K (lysine) sequence was added to the C-terminus of KU-5878, the antibacterial activity of the peptide increased.

## KSMMQSGGTFGTFMAIGMGIR [KU-5878-T59S]
[1]
  MBC Pseudomonas aeruginosa: > 300 µg/mL
[2]
  MBC Staphylococcus aureus: > 300 µg/mL
[3]
  MBC MRSA: > 300 µg/mL
CRPA
  MBC CRPA: > 300 µg/mL

## KTMMQTGGTFGTFMAIGMGIR [KU-5878-S63T]
[1]
  MBC Pseudomonas aeruginosa: > 300 µg/mL
[2]
  MBC Staphylococcus aureus: > 300 µg/mL
[3]
  MBC MRSA: > 300 µg/mL
CRPA
  MBC CRPA: > 300 µg/mL

## KTMMQSGGTFGTFMAKGMGIR [KU-5878-I73K]
[1]
  MBC value (μg/ml) against Pseudomonas aeruginosa: >300 µg/mL
  MBC Pseudomonas aeruginosa: > 300 µg/mL
[2]
  MBC value (μg/ml) against Staphylococcus aureus: >300 µg/mL
  MBC Staphylococcus aureus: > 300 µg/mL
[3]
  MBC MRSA: > 300 µg/mL
CRPA
  MBC CRPA: > 300 µg/mL

## KTMMQSGGTFGTFMAIGMGGR [KU-5878-I77G]
[1]
  MBC value (μg/ml) against Pseudomonas aeruginosa: 80 µg/mL
  MBC Pseudomonas aeruginosa: 80 µg/mL
[2]
  MBC value (μg/ml) against Staphylococcus aureus: 90 µg/mL
  MBC Staphylococcus aureus: 90 µg/mL
[3]
  MBC MRSA: 90 µg/mL
CRPA
  MBC CRPA: 100 µg/mL

## KTMMQSGGTFGTFMAIGMGIRRRR [Peptide 5878-3R]
[1]
  MBC Pseudomonas aeruginosa: 8 µg/mL
[2]
  MBC Staphylococcus aureus: 8 µg/mL
[3]
  MBC MRSA: 10 µg/mL
CRPA
  MBC CRPA: 8 µg/mL

## KTMMQSGGTWGTFMAIGMGIR [KU-5878-F67W]
[1]
  MBC value (μg/ml) against Pseudomonas aeruginosa: 80 µg/mL
  MBC Pseudomonas aeruginosa: 80 µg/mL
[2]
  MBC value (μg/ml) against Staphylococcus aureus: 80 µg/mL
  MBC Staphylococcus aureus: 80 µg/mL
[3]
  MBC MRSA: 90 µg/mL
CRPA
  MBC CRPA: 80 µg/mL

## KTMMQSGGTFGAFMAIGMGIR [KU-5878-T69A]
[1]
  MBC Pseudomonas aeruginosa: 300 µg/mL
[2]
  MBC Staphylococcus aureus: 300 µg/mL
[3]
  MBC MRSA: 300 µg/mL
CRPA
  MBC CRPA: 300 µg/mL

## KTMMQSGGTFGTFMAIGMGKR [KU-5878-I77K]
[1]
  MBC value (μg/ml) against Pseudomonas aeruginosa: >300 µg/mL
  MBC Pseudomonas aeruginosa: > 300 µg/mL
[2]
  MBC value (μg/ml) against Staphylococcus aureus: >300 µg/mL
  MBC Staphylococcus aureus: > 300 µg/mL
[3]
  MBC MRSA: > 300 µg/mL
CRPA
  MBC CRPA: > 300 µg/mL

## KTMMQS-GTFGTFMAIGMGIR [Peptide 5878-d64G]
[1]
  MBC Pseudomonas aeruginosa: 100 µg/mL
[2]
  MBC Staphylococcus aureus: 100 µg/mL
[3]
  MBC MRSA: 100 µg/mL
CRPA
  MBC CRPA: 110 µg/mL

## KTMMQSGGTFGTFMAWGMGIR [KU-5878-I73W]
[1]
  MBC value (μg/ml) against Pseudomonas aeruginosa: 300 µg/mL
  MBC Pseudomonas aeruginosa: 300 µg/mL
[2]
  MBC value (μg/ml) against Staphylococcus aureus: 300 µg/mL
  MBC Staphylococcus aureus: 300 µg/mL
[3]
  MBC MRSA: > 300 µg/mL
CRPA
  MBC CRPA: 300 µg/mL

## KT-MQSGGTFGTFMAIGMGIR [Peptide 5878-d60M]
[1]
  MBC Pseudomonas aeruginosa: 90 µg/mL
[2]
  MBC Staphylococcus aureus: 90 µg/mL
[3]
  MBC MRSA: 100 µg/mL
CRPA
  MBC CRPA: 90 µg/mL

## KTMMRSGGTFGTFMAIGMGIR [KU-5878-Q62R]
[1]
  MBC Pseudomonas aeruginosa: 80 µg/mL
[2]
  MBC Staphylococcus aureus: 80 µg/mL
[3]
  MBC MRSA: 90 µg/mL
CRPA
  MBC CRPA: 80 µg/mL

## KTMMQS-GTFGTF-AIGM-IR [5878-d64G, d71M, d76G]
[1]
  MBC Pseudomonas aeruginosa: 200 µg/mL
[2]
  MBC Staphylococcus aureus: 200 µg/mL
[3]
  MBC MRSA: 200 µg/mL
CRPA
  MBC CRPA: 200 µg/mL

## KTMMQ-GGTFGTFMAIGMGIR [Peptide 5878-d63S]
[1]
  MBC Pseudomonas aeruginosa: 200 µg/mL
[2]
  MBC Staphylococcus aureus: 200 µg/mL
[3]
  MBC MRSA: 200 µg/mL
CRPA
  MBC CRPA: 200 µg/mL

## KTMMQSGG-FGTFMAIGMGIR [Peptide 5878-d66T]
[1]
  MBC Pseudomonas aeruginosa: 90 µg/mL
[2]
  MBC Staphylococcus aureus: 90 µg/mL
[3]
  MBC MRSA: 90 µg/mL
CRPA
  MBC CRPA: 100 µg/mL

## KTMMQSGGTFGTFMA-GMGIR [Peptide 5878-d73I]
[1]
  MBC Pseudomonas aeruginosa: > 300 µg/mL
[2]
  MBC Staphylococcus aureus: > 300 µg/mL
[3]
  MBC MRSA: > 300 µg/mL
CRPA
  MBC CRPA: > 300 µg/mL

## KTMMQSGGTFGTFMAIGMGIRQ [Peptide 5878-Q]
[1]
  MBC Pseudomonas aeruginosa: 150 µg/mL
[2]
  MBC Staphylococcus aureus: 180 µg/mL
[3]
  MBC MRSA: 180 µg/mL
CRPA
  MBC CRPA: 180 µg/mL

## KTMMQSGGTFGTFMAIGMGIRKK [Peptide 5878-KK]
[1]
  MBC Pseudomonas aeruginosa: 15 µg/mL
[2]
  MBC Staphylococcus aureus: 16 µg/mL
[3]
  MBC MRSA: 16 µg/mL
CRPA
  MBC CRPA: 16 µg/mL

## KT-MQS-GTFGTFMAIGMGIR [5878-d60M, d64G]
[1]
  MBC Pseudomonas aeruginosa: 100 µg/mL
[2]
  MBC Staphylococcus aureus: 100 µg/mL
[3]
  MBC MRSA: 110 µg/mL
CRPA
  MBC CRPA: 100 µg/mL

## KTMMQSGGTFGTKMAIGMGIR [KU-5878-F70K]
[1]
  MBC value (μg/ml) against Pseudomonas aeruginosa: >300 µg/mL
  MBC Pseudomonas aeruginosa: > 300 µg/mL
[2]
  MBC value (μg/ml) against Staphylococcus aureus: >300 µg/mL
  MBC Staphylococcus aureus: > 300 µg/mL
[3]
  MBC MRSA: > 300 µg/mL
CRPA
  MBC CRPA: > 300 µg/mL

## KTMMQSGGTFGTFMAIGM-IR [Peptide 5878-d76G]
[1]
  MBC Pseudomonas aeruginosa: 80 µg/mL
[2]
  MBC Staphylococcus aureus: 70 µg/mL
[3]
  MBC MRSA: 90 µg/mL
CRPA
  MBC CRPA: 90 µg/mL

## K-MMQSGGTFGTFMAIGMGIR [Peptide 5878-d59T]
[1]
  MBC Pseudomonas aeruginosa: 150 µg/mL
[2]
  MBC Staphylococcus aureus: 150 µg/mL
[3]
  MBC MRSA: 150 µg/mL
CRPA
  MBC CRPA: 150 µg/mL

## KTMMQAGGTFGTFMAIGMGIR [KU-5878-S63A]
[1]
  MBC Pseudomonas aeruginosa: 300 µg/mL
[2]
  MBC Staphylococcus aureus: 300 µg/mL
[3]
  MBC MRSA: > 300 µg/mL
CRPA
  MBC CRPA: 300 µg/mL

## KTMMHSGGTFGTFMAIGMGIR [KU-5878-Q62H]
[1]
  MBC Pseudomonas aeruginosa: > 300 µg/mL
[2]
  MBC Staphylococcus aureus: > 300 µg/mL
[3]
  MBC MRSA: > 300 µg/mL
CRPA
  MBC CRPA: > 300 µg/mL
